Reference: patent US20120010178A1, “METHODS AND COMPOUNDS FOR TREATMENT OF NEURODEGENERATIVE DISORDERS” (PRESIDENT AND FELLOWS OF HARVARD COLLEGE, priority 2008, published 2012)
Entries after “also recorded” stand apart in the source; their conditions may differ.

What was measured:
[1] = system: SMN; assay: SMN levels in mouse (ES-cell derived) motor neurons; type: cell-based; settings: for SMN levels in motor neurons (in words): mouse motor neurons
Method: Mouse HB9-GFP derived SMN deficient motor neuron cells were incubated for 2 days with compounds from libraries and collections.
Motor neurons were produced from mouse ES-cells expressing cherry fluorescent protein (CFP) under the control of the motor neuron-selective Hb9 promoter, as previously described (Wichterle et al., 2002).
GFP expressing motor neurons were derived from mouse ES cells as described below. After growing for approximately 1 week, motor neurons were treated with allsterpaullone. Two days after treatment with allsterpaullone, cells were fixed and stained with SMN antibody or GFP antibody.
mES cells were differentiated into motor neurons according to methods adapted from Wichterle et. al., Cell (2002), 110:385-397. Briefly, mES cells were grown to 70-80% confluence in 10-cm plates (Falcon) in ES cell medium. To form embryoid bodies, cells were washed once with PBS to eliminate mES medium and then incubated with 1 ml of 0.25% trypsin (GIBCO) for 5-10 min at 21-25° C. (RT). Cells were then resuspended in 10 ml of DM1 medium (DMEM-F12, GIBCO), 10% knockout serum (GIBCO), penicillin, streptomycin, glutamine (GIBCO) and 2-mercaptoethanol (GIBCO), counted and plated at a concentration of 200,000 cells per ml in Petri dishes (Falcon). Two days later, embryoid bodies were collected and resuspended into new Petri dishes containing DM1 medium supplemented with RAc (100 nM; stock 1 mM in DMSO, Sigma) and HhAg (100 nM). […] treatment was repeated with the same concentration of RAc (100 nM) and high concentration of HhAg (1 μM). On day 6, the embryoid bodies were collected in a 15-ml Falcon tube, and incubated in Earle's balanced salt solution with 20 units of Papain and 1,000 units of DNase I (Worthington Biochemical) for 10 min at 37° C. The mixture was then triturated with a 10-ml pipette and centrifugated for 5 min at 800 rpm. The resulting cell pellet was washed with PBS and resuspended in F12 medium (F12 medium, GIBCO) with 2% fetal bovine serum (GIBCO), B-27 supplement (GIBCO), (GDNF and BDNF, 20 ng ml^−1, R&D Systems). The cells were counted and plated on poly-ornithine coated 96-well plates (VWR).

[2] = system: SMN; assay: SMN immunofluorescence quantification (cytoplasm, nucleus, GEMs) in fibroblasts from SMA patients; type: cell-based, human; settings: for levels of cytoplasmic and nuclear SMN (in words): substance alone
In short: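 SMN immunostained and imaged by automated confocal microscopy; per-cell cytoplasmic and nuclear SMN intensity and GEM number and intensity quantified. PFA fixation used for screening.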

[3] = biological target: T1, GSK3b (Ser-9 phosphorylation) (Homo sapiens, UniProt P49841); assay: p-GSK(Ser9) phosphorylation in patient fibroblasts (western blot / immunofluorescence); type: cell-based; settings: patient fibroblasts
T1 construct: endogenous in cells; host or cells: SMA patient fibroblasts (GM09677), starved in 0.5% FBS before treatment
Method: Compounds were stored at appropriate temperature and dissolved accordingly to the manufacturers (Tocris, Enzo, EMD and Sigma-Aldrich) in DMSO (Sigma-Aldrich), unless stated otherwise (Monensin Na in EtOH, DMPQ in water). Growth factors and PDGF neutralizing antibodies (R&D Systems) were reconstituted with buffers recommended by the supplier. For generation of the dose curves, 1×10^3 fibroblasts were plated on to 96-well Greiner Senso plates (VWR) and treated with compounds on the second day then fixed and stained at the indicated time points. For GSK inhibitors and performing p-GSK3b(Ser9) detection, two days after plating growth media containing 5% FBS was replaced to the media with FBS reduced down to 0.5%, to starve cells for 72 hours. Addition of the GSK inhibitors was done in 5% FBS enriched media. As previously described, starvation increases levels of constitutively activate GSK3b kinase, allowing to achieve a more dramatic inhibitory effect when GSK inhibitors are added together with growth factors that are also known to inhibit GSK by Ser-9 phosphorylation. […] For all compounds and growth factors control wells received solvent in amount equivalent to the highest concentration of the compound in a dose curve. For PDGF inhibitory studies, cells were pre-treated with kinase inhibitors for 2 hours and PDGF was added with a fresh kinase inhibitor solution and incubated for an additional 3 days.

T1 sequence (P49841 whole entry): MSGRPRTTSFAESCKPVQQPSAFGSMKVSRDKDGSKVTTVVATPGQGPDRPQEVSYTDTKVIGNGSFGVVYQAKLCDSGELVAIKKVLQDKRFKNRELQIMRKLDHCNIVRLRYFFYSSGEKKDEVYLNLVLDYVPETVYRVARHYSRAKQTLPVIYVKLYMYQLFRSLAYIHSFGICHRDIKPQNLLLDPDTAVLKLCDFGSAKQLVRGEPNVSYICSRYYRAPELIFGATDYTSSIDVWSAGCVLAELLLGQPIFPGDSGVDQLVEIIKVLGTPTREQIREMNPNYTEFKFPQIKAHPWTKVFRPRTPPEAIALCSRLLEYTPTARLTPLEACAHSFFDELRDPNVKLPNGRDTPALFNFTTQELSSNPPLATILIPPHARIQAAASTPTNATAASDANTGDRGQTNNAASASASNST

Row | Compound | Gem intensity in neurons (in words) ([1]; ES-cell derived neurons) | SMN levels in motor neurons (in words) [1] | SMN levels in motor neurons (in words) ([1]; listed as allsterpaullone) | levels of cytoplasmic and nuclear SMN (in words) ([2]; SMA patient fibroblasts) | levels of cytoplasmic and nuclear SMN (in words) ([2]; SMA patient fibroblasts, listed as alsterpaullone) | effect on SMN level ([2]; fed cells (10% serum, not starved)) | effect on SMN level ([2]; pre-starved cells that received fresh media with 10% serum along with compound) [fold] | effect on SMN level ([2]; pre/post-starved cells (0.5% serum)) [fold] | p-GSK-Ser9 phosphorylation (in words) [3] | fold increase in cytoplasmic SMN ([2]; SMA patient fibroblasts) [fold] | fold increase in nuclear SMN ([2]; SMA patient fibroblasts) [fold] | levels of cytoplasmic and nuclear SMN (in words) ([2]; SMA patient fibroblasts, listed as platelet derived PDGF) | Avg. SMN fold increase ([2]; human PDGF isoforms, SMA patient fibroblasts)
1 | O=C1Cc2c([nH]c3ccc([N+](=O)[O-])cc23)-c2ccccc2N1 [Alsterpaullone] | increases Gem intensity in neurons; also recorded: main increase was observed in Gem Intensity parameter | increases level of SMN in neurons; also recorded: able to elevate Smn | Increased SMN levels | increase SMN levels; also recorded: Most active compounds | able to elevate SMN in patient fibroblasts | weak effect | 1.9 | 1.6 | increase in a dose dependent manner | – | – | – | –
2 | PDGF | – | no effect on elevating SMN | – | increase in SMN levels | – | – | – | – | phosphorylates GSK313 in a dose-dependent manner | 2.3 | 1.95 | strongest activator | 2-2.3 fold
